Source: US8691820B2, “CDK inhibitors” (Curis, Inc., priority 2008, dated 2014)

Target: T1, CDK2/cyclinA (Homo sapiens, UniProt P24941)
T1 construct: C-terminal 6His-tagged human full length cdk2 (MW=35 kDa); 6His (C); made in house; host or cells: Sf21 insect cells (baculovirus)
Assay: CDK2 kinase assay (33P-ATP, Histone H1 substrate)
Assay type: biochemical
Conditions: 1 μM ATP, 5 μM Histon H1, 2 hours at room temperature
Text: CDK2/cyclinA (Accession number for CDK2; EMBL M68520, for cyclin A; EMBL X51688): C-terminal 6His-tagged human full length cdk2 (MW=35 kDa), and N-terminal GST-tagged human full length cyclin A (MW=75 kDa) were expressed individually with baculovirus system in Sf21 insect cells. Recombinant cdk2 protein was purified with Ni2+/NTA agarose and then activated using CAK and repurified by Q Sepharose and Ni2+/NTA agarose. Recombinant cyclin A was purified using glutathione-agarose. They were then mixed in vitro to form protein complex. Recombinant protein complex was measured to be 67% in purity with SDS-PAGE and Coomassie blue staining. Specific activity of purified enzyme was measured to be 158 U/mg, where one unit of cdk2/cyclinA activity is defined as 1 nmol phosphate incorporated into 0.1 mg/ml histone H1 per minute at 30° C. with a final ATP concentration of […]. Enzyme was stored at a concentration of 0.1 mg/ml in 50 mM Tris/HCl pH7.5, 150 mM NaCl, 0.1 mM EGTA, 0.03% Brij-35, 270 mM sucrose, 1 mM benzamidine, 0.2 mM PMSF, 0.1% 2-mercaptoethanol. Frozen solution.
Histon H1 (Substrate for CDK2): Histone H1 (Sigma cat#H4524), was purified as a lysine rich fraction from calf thymus with 93% purity (MW=21.5 kDa). Purified protein was stored at a concentration of 20 mg/ml=930 μM in distilled water.
[…] (0.5 nmol) and 5 μM Histon H1 were mixed in the reaction buffer (20 mM HEPES (pH 7.5), 10 mM MgCl2, 1 mM EGTA, 0.02% Brij 35, 0.02 mg/ml BSA, 0.1 mM Na3VO4, 2 mM DTT) with final concentration of 1 μM ATP and 1% DMSO. The reaction was incubated for 2 hours at room temperature and conversion rate of ATP is about 4.5%. An equal volume of 25% TCA was added to stop the reaction and precipitate the labeled peptides. Precipitated proteins were trapped onto glass fiber B filterplates and excess […] p33 ATP was washed off. The plates were allowed to air-dry prior to the addition of 30 uL/well of Packard Microscint 20. The amount of incorporated isotope was measured using a Perkin Elmer TopCount plate reader. Different concentrations of compounds were added to reaction to assess the activity of compounds to inhibit […]. IC50 was calculated using Prism software with sigmoidal dose-response curve fitting.
The following TABLE B lists compounds representative of the invention and their activity in the CDK2 assay. In this assay, the following grading was used: I≧10 μM, 10 μM>II>1 μM, 1 μM>III>0.1 μM, and IV≦0.1 μM for IC50.

CONC(=O)CCCCCCC(=O)Nc1ncc(SCc2ncc(C(C)(C)C)o2)s1 [Compound 1, N^1-(5-((5-tert-butyloxazol-2-yl)methylthio)thiazol-2-yl)-N^8-methoxyoctanediamide]
IC50: ≤ 100 nM

CC(C)(C)c1cnc(CSc2cnc(NC(=O)CCCCCCC(=O)NOCc3ccccc3)s2)o1 [Compound 2, N^1-(benzyloxy)-N^8-(5-((5-tert-butyloxazol-2-yl)methylthio)thiazol-2-yl)octanediamide]
IC50: ≤ 100 nM

CC(C)(C)c1cnc(CSc2cnc(NC(=O)CCCCCCC(=O)NOC3CCCCO3)s2)o1 (stereo not shown) [Compound 3, N^1-(5-((5-tert-butyloxazol-2-yl)methylthio)thiazol-2-yl)-N^8-(tetrahydro-2H-pyran-2-yloxy)octanediamide]
IC50: ≤ 100 nM

CN(O)C(=O)CCCCCCC(=O)Nc1ncc(SCc2ncc(C(C)(C)C)o2)s1 [Compound 4, N^1-(5-((5-tert-butyloxazol-2-yl)methylthio)thiazol-2-yl)-N^8-hydroxy-N^8-methyloctanediamide]
IC50: ≤ 100 nM

CC(C)(C)c1cnc(CSc2cnc(NC(=O)CCCCCCC(=O)N(O)Cc3ccccc3)s2)o1 [Compound 6, N^1-benzyl-N^8-(5-((5-tert-butyloxazol-2-yl)methylthio)-thiazol-2-yl)-N^1-hydroxyoctanediamide]
IC50: ≤ 100 nM

CC(C)(C)c1cnc(CSc2cnc(NC(=O)CCCCCCC(=O)NOCCO)s2)o1 [Compound 7, N^1-(5-((5-tert-butyloxazol-2-yl)methylthio)thiazol-2-yl)-N^8-(2-hydroxyethoxy)octanediamide]
IC50: ≤ 100 nM

CC(C)(C)c1cnc(CSc2cnc(NC(=O)CCCCCCC(=O)Nc3ccc(CCO)cc3)s2)o1 [Compound 8, N^1-(5-((5-tert-butyloxazol-2-yl)methylthio)thiazol-2-yl)-N^8-(4-(2-hydroxyethyl)phenyl)octanediamide]
IC50: ≤ 100 nM

CC(C)(C)c1cnc(CSc2cnc(NC(=O)CCCCCCC(=O)Nc3ccccc3)s2)o1 [Compound 9, N^1-(5-((5-tert-butyloxazol-2-yl)methylthio)thiazol-2-yl)-N^8-phenyloctanediamide]
IC50: ≤ 100 nM

CC(C)(C)c1cnc(CSc2cnc(NC(=O)CCCCCCC(=O)Nc3ccc(O)cc3)s2)o1 [Compound 10, N^1-(5-((5-tert-butyloxazol-2-yl)methylthio)thiazol-2-yl)-N^8-(4-hydroxyphenyl)octanediamide]
IC50: ≤ 100 nM

CC(C)(C)c1cnc(CSc2cnc(NC(=O)C(=O)Nc3ccccc3)s2)o1 [Compound 11]
IC50: 100 to 1000 nM

CC(C)(C)c1cnc(CSc2cnc(NC(=O)CC(=O)Nc3ccccc3N)s2)o1 [Compound 13, N1-(2-aminophenyl)-N3-(5-((5-tert-butyloxazol-2-yl)methylthio)thiazol-2-yl)malonamide]
IC50: ≤ 100 nM

CC(C)(C)c1cnc(CSc2cnc(NC(=O)CCCC(=O)Nc3ccccc3N)s2)o1 [Compound 15, N1-(2-aminophenyl)-N5-(5-((5-tert-butyloxazol-2-yl)methylthio)thiazol-2-yl)glutaramide]
IC50: ≤ 100 nM

CC(C)(C)c1cnc(CSc2cnc(NC(=O)CCCCC(=O)Nc3ccccc3N)s2)o1 [Compound 16, N1-(2-aminophenyl)-N6-(5-((5-tert-butyloxazol-2-yl)methylthio)thiazol-2-yl)adipamide]
IC50: ≤ 100 nM

CC(C)(C)c1cnc(CSc2cnc(NC(=O)CCCCCC(=O)Nc3ccccc3N)s2)o1 [Compound 17, N1-(2-aminophenyl)-N7-(5-((5-tert-butyloxazol-2-yl)methylthio)thiazol-2-yl)heptanediamide]
IC50: ≤ 100 nM

CC(=O)Nc1ccccc1NC(=O)CCCCCCC(=O)Nc1ncc(SCc2ncc(C(C)(C)C)o2)s1 [Compound 19, N^1-(2-acetamidophenyl)-N^8-(5-((5-tert-butyloxazol-2-yl)methylthio)thiazol-2-yl)octanediamide]
IC50: ≤ 100 nM

CC(Sc1cnc(NC(=O)CCCCCCC(=O)Nc2ccccc2N)s1)c1ncc(C(C)(C)C)o1 (stereo not shown) [Compound 20, N^1-(2-aminophenyl)-N^8-(5-(1-(5-tert-butyloxazol-2-yl)ethylthio)thiazol-2-yl)octanediamide]
IC50: ≤ 100 nM

CC(C)(C)c1cnc(CSc2cnc(NC(=O)CCCCCCC(=O)Nc3ccc(N)cc3)s2)o1 [Compound 21, N^1-(4-aminophenyl)-N^8-(5-((5-tert-butyloxazol-2-yl)methylthio)thiazol-2-yl)octanediamide]
IC50: ≤ 100 nM

CC(C)(C)c1cnc(CSc2cnc(NC(=O)CCCCCCC(=O)Nc3cccc(N)c3)s2)o1 [Compound 22, N^1-(3-aminophenyl)-N^8-(5-((5-tert-butyloxazol-2-yl)methylthio)thiazol-2-yl)octanediamide]
IC50: ≤ 100 nM

CC(C)(C)c1cnc(CSc2cnc(NC(=O)CCCCCCC(=O)Nc3ccc(F)cc3N)s2)o1 [Compound 23, N^1-(2-amino-4-fluorophenyl)-N^8-(5-((5-tert-butyloxa-zol-2-yl)methylthio)thiazol-2-yl)octanediamide]
IC50: ≤ 100 nM

Cc1ccc(NC(=O)CCCCCCC(=O)Nc2ncc(SCc3ncc(C(C)(C)C)o3)s2)c(N)c1 [Compound 26, N^1-(2-amino-4-methylphenyl)-N^8-(5-((5-tert-butyloxazol-2-yl)methylthio)thiazol-2-yl)octanediamide]
IC50: ≤ 100 nM

CC(C)(C)c1cnc(CSc2cnc(NC(=O)Nc3ccccc3N)s2)o1 [Compound 27, 1-(2-Aminophenyl)-3-(5-((5-tert-butyloxazol-2-yl)methyl-thio)thiazol-2-yl)urea]
IC50: ≤ 100 nM

CC(C)(C)c1cnc(CSc2cnc(NC(=O)CCCCCCC(=O)Nc3ccccn3)s2)o1 [Compound 28, N^1-(5-((5-tert-butyloxazol-2-yl)methylthio)thiazol-2-yl)-N^8-(pyridin-2-yl)octanediamide]
IC50: ≤ 100 nM

CC(C)(C)c1cnc(CSc2cnc(NC(=O)CCCCCCC(=O)Nc3cccnc3)s2)o1 [Compound 29, N^1-(5-((5-tert-butyloxazol-2-yl)methylthio)thiazol-2-yl)-N^8-(pyridin-3-yl)octanediamide]
IC50: ≤ 100 nM

CC(C)(C)c1cnc(CSc2cnc(NC(=O)CCCCCCC(=O)Nc3ccncc3)s2)o1 [Compound 30, N^1-(5-((5-tert-butyloxazol-2-yl)methylthio)thiazol-2-yl)-N^8-(pyridin-4-yl)octanediamide]
IC50: ≤ 100 nM

CONC(=O)CCCOc1ccc(CC(=O)Nc2ncc(SCc3ncc(C(C)(C)C)o3)s2)cc1 [Compound 31, 4-(4-(2-(5-((5-tert-butyloxazol-2-yl)methylthio)thiazol-2-ylamino)-2-oxoethyl)phenoxy)-N-methoxybutanamide]
IC50: ≤ 100 nM

CN(O)C(=O)CCCOc1ccc(CC(=O)Nc2ncc(SCc3ncc(C(C)(C)C)o3)s2)cc1 [Compound 32, 4-(4-(2-(5-((5-tert-butyloxazol-2-yl)methylthio)thiazol-2-ylamino)-2-oxoethyl)phenoxy)-N-hydroxy-N-methylbutanamide]
IC50: ≤ 100 nM

CC(C)(C)c1cnc(CSc2cnc(NC(=O)Cc3ccc(OCCC(=O)Nc4ccccc4N)cc3)s2)o1 [Compound 33]
IC50: ≤ 100 nM

CC(C)(C)c1cnc(CSc2cnc(NC(=O)Cc3ccc(OCCCC(=O)Nc4ccccc4N)cc3)s2)o1 [Compound 34, N-(2-aminophenyl)-4-(4-(2-(5-((5-tert-butyloxazol-2-yl)methylthio)thiazol-2-ylamino)-2-oxoethyl)phenoxy)butanamide]
IC50: ≤ 100 nM

CC(C)(C)c1cnc(CSc2cnc(NC(=O)Cc3ccc(OCCCCC(=O)Nc4ccccc4N)cc3)s2)o1 [Compound 35, N-(2-aminophenyl)-5-(4-(2-(5-((5-tert-butyloxazol-2-yl)methylthio)thiazol-2-ylamino)-2-oxoethyl)phenoxy)pentanamide]
IC50: ≤ 100 nM

CC(C)(C)c1cnc(CSc2cnc(NC(=O)Cc3ccc(OCCCCCC(=O)Nc4ccccc4N)cc3)s2)o1 [Compound 36, N-(2-aminophenyl)-6-(4-(2-(5-((5-tert-butyloxazol-2-yl)methylthio)thiazol-2-ylamino)-2-oxoethyl)phenoxy)hexanamide]
IC50: ≤ 100 nM

CONC(=O)/C=C/c1ccc(C(=O)Nc2ncc(SCc3ncc(C(C)(C)C)o3)s2)cc1 [Compound 38, (E)-N-(5-((5-tert-butyloxazol-2-yl)methylthio)thiazol-2-yl)-4-(3-(methoxyamino)-3-oxoprop-1-enyl)benzamide]
IC50: ≤ 100 nM
